The record followed here is patent US9067937B2 (priority 2012, dated 2015).

Where a name gives a salt, the structure may show the parent alone.

In assay [1] the test system is A549 cells. Kind of assay: Cell-based assay, anti-proliferative activity (Cell Counting Kit-8, 72 hours). Also noted: species or system human. As to conditions: Homo sapiens, A549, 72 h, read-out: IC50 (μM) (A549). The essentials:
(§1)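 Cells seeded at 2,000–3,000 cells/well and exposed to candidate MELK inhibitors for 72 hours; growth measured with Cell Counting Kit-8. IC50 values calculated from the growth read-out.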
For orientation: Tetrazolium dyes change colour on reduction, which living cells bring about.

Assay [2] relates to T47D cells. Described as above. Also noted: species or system human. The following applies: Homo sapiens, T47D, 72 h, read-out: IC50 (μM) (T47D). The essentials:
as §1

Assay [3] concerns 22Rv1 cells. The assay is described as above. The following applies: Homo sapiens, 22Rv1, 72 h, read-out: IC50 (μM) (22Rvl). Also noted: species or system human. The essentials: as §1
Assay [4] relates to DU4475 cells. The description is as above. More on the design: species or system human. The following applies: Homo sapiens, DU-4475, 72 h, read-out: IC50 (μM) (DU4475). The essentials: as §1
For assay [5], the target named is MELK (Homo sapiens, UniProt Q14680). Kind of assay: Kinase assay (IMAP fluorescence polarization, FITC-labeled histone H3 peptide). The format is biochemical. The following applies: 50 micro-M ATP. The essentials:
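Kinase (0.8 ng/μL) reacted with 100 nM FITC-histone H3 peptide and 50 μM ATP in 20 mM HEPES, 0.3 mM MgCl2, 2 mM DTT, 0.01% Tween-20, pH 7.4, for 1 hour at room temperature. Phosphorylation read by IMAP fluorescence polarization after adding binding solution; IC50 from four-parameter fit.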

Assay [6] relates to HT1197 cells. Kind of assay: Cell-based assay, anti-proliferative activity, MELK-negative control (Cell Counting Kit-8, 72 hours). As to conditions: Homo sapiens, HT1197, 72 h, read-out: IC50 (μM) (HTll97). More on the design: species or system human. The method, then:
100 micro-L of cell suspension was seeded onto 96-well microtiter plate (ViewPlate-96FTC, PerkinElmer). The initial cell concentration of 22Rv1, T47D, A549, DU4475, and HT1197 were 3,000 cells/well, 2,000 cells/well and 2,500 cells/well, respectively. Cellular growth was determined using Cell Counting Kit-8 (DOJINDO) at 72 hours after the exposure of the candidate inhibitors. […] Accurate IC50 values were calculated as described previously.

Sequence of MELK (Q14680 whole entry, looked up): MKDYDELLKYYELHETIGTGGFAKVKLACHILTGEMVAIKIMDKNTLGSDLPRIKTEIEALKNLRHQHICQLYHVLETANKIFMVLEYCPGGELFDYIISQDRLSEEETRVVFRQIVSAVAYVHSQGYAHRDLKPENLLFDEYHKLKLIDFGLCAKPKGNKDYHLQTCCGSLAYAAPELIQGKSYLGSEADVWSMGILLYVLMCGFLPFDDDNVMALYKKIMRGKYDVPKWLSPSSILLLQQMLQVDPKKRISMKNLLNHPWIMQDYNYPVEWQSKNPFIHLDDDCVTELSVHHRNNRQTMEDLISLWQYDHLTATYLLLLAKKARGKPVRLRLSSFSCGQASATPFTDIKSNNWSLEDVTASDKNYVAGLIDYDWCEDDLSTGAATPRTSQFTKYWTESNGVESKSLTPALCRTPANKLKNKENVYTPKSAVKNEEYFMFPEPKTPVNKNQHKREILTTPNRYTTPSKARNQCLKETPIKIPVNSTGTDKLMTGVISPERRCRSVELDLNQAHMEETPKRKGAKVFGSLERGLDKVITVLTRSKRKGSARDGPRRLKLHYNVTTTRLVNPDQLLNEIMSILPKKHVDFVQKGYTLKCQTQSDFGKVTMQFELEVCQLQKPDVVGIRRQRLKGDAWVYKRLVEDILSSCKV

In general, IC50 refers to the midpoint of a concentration-inhibition curve. Turning to `CC(=O)c1cnc2ccc(-c3cnc4[nH]ccc4c3)nc2c1N[C@H]1CC[C@H](CN(C)C)CC1` [Example 82, 1-(4-{trans-4-[(Dimethylamino)methyl]cyclohexylamino}-6-(1H-pyrrolo[2,3-b]pyridin-5-yl)-1,5-naphthyridin-3-yl)ethanone trihydrochloride], the IC50 is 0.33 µM in assay [1]; 0.32 µM in assay [2]; 0.37 µM in assay [3]; 0.65 µM in assay [4]; 0.013 µM in assay [5]; 2.3 µM in assay [6].
`N[C@H]1CCCN(c2ccc(Nc3c(C(=O)C4CC4)cnc4ccc(-c5cc(F)c(O)c(Cl)c5)nc34)cn2)C1` [Example 83, (S)-{4-[6-(3-Aminopiperidin-1-yl)pyridin-3-ylamino]-6-(3-chloro-5-fluoro-4-hydroxyphenyl)-1,5-naphthyridin-3-yl}(cyclopropyl)methanone]: the IC50 is 0.09 µM in assay [1]; 0.012 µM in assay [2]; 0.025 µM in assay [3]; 0.015 µM in assay [4]; 0.001 µM in assay [5]; 2.7 µM in assay [6].
Regarding `COc1ccc(-c2ccc3ncc(C(C)=O)c(N[C@H]4CC[C@H](CN(C)C)CC4)c3n2)cc1` [Example 84, 1-(4-{trans-4-[(Dimethylamino)methyl]cyclohexylamino}-6-(4-methoxyphenyl)-1,5-naphthyridin-3-yl)ethanone dihydrochloride], the IC50 in assay [1] turned out to be 2.4 µM; in assay [2], 0.25 µM; in assay [3], 0.58 µM; in assay [4], 5.2 µM; in assay [5] it was 0.031 µM; in assay [6], 6 µM.
`COc1c(Cl)cc(-c2ccc3ncc(C(C)=O)c(N[C@H]4CC[C@H](CN(C)C)CC4)c3n2)cc1Cl` [Example 85, 1-[6-(3,5-Dichloro-4-methoxyphenyl)-4-{trans-4-[(dimethylamino)methyl]-cyclohexylamino}-1,5-naphthyridin-3-yl]ethanone dihydrochloride]: the IC50 in assay [1] is 2.3 µM; in assay [2], 0.43 µM; in assay [3] it was 0.77 µM; in assay [4] it was 2.3 µM; in assay [5] it was 0.12 µM; in assay [6] it was 6.5 µM.
For `CC(=O)c1cnc2ccc(-c3ccc(O)nc3)nc2c1N[C@H]1CC[C@H](CN(C)C)CC1` [Example 86, 1-(4-{trans-4-[(Dimethylamino)methyl]cyclohexylamino}-6-(6-hydroxypyridin-3-yl)-1,5-naphthyridin-3-yl)ethanone dihydrochloride], the IC50 in assay [1] was 8 µM; in assay [2], 6.2 µM; in assay [3], 5.3 µM; in assay [4], 6.5 µM; in assay [5], 0.011 µM; in assay [6] it was 10 µM.
As for `CC(=O)c1cnc2ccc(-c3ccc(C#N)nc3)nc2c1N[C@H]1CC[C@H](CN(C)C)CC1` [Example 87, 5-(7-Acetyl-8-{trans-4-[(dimethylamino)methyl]cyclohexylamino}-1,5-naphthyridin-2-yl)picolinonitrile dihydrochloride], the concentration for half-maximal inhibition (IC50) in assay [1] stood at 1.8 µM; in assay [2] it was 0.66 µM; in assay [3], 0.66 µM; in assay [4] it was 0.74 µM; in assay [5] it was 0.0045 µM; in assay [6] it was 2 µM.
In the case of `CC(=O)c1cnc2ccc(-c3ccc(O)cc3)nc2c1N[C@H]1CC[C@H](CN(C)C)CC1` [Example 88, 1-(4-{trans-4-[(Dimethylamino)methyl]cyclohexylamino}-6-(4-hydroxyphenyl)-1,5-naphthyridin-3-yl)ethanone dihydrochloride], the IC50 amounted to 0.023 µM in assay [1]; 0.031 µM in assay [2]; 0.04 µM in assay [3]; 0.021 µM in assay [4]; 0.0045 µM in assay [5]; 0.039 µM in assay [6].
As to `CC(=O)c1cnc2ccc(-c3cc(F)c(O)c(Cl)c3)nc2c1NC[C@H]1CC[C@H](N(C)C)CC1` [Example 90, 1-[6-(3-Chloro-5-fluoro-4-hydroxyphenyl)-4-{[trans-4-(dimethylamino)-cyclohexyl]methylamino}-1,5-naphthyridin-3-yl]ethanone dihydrochloride], the 50% inhibitory concentration (IC50) in assay [1] worked out at 0.12 µM; in assay [2], 0.03 µM; in assay [3], 0.052 µM; in assay [4], 0.027 µM; in assay [5] it was 0.0024 µM; in assay [6], 10 µM.
As for `CC(=O)c1cnc2ccc(-c3cc(F)c(O)c(Cl)c3)nc2c1N[C@H]1CC[C@@H](CN(C)C)CC1` [Example 93, 1-{6-(3-Chloro-5-fluoro-4-hydroxyphenyl)-4-({cis-4-[(dimethylamino)methyl]cyclohexyl}-amino)-1,5-naphthyridin-3-yl}ethanone dihydrochloride], the IC50 stood at 0.039 µM in assay [1]; 0.02 µM in assay [2]; 0.032 µM in assay [3]; 0.011 µM in assay [4]; 0.0011 µM in assay [5]; 0.19 µM in assay [6].
With `CC(=O)c1cnc2ccc(-c3cc(Cl)c(O)c(Cl)c3)nc2c1Nc1ccc(N2CCC[C@@H](N)C2)nc1` [Example 95, (R)-1-{4-[6-(3-Aminopiperidin-1-yl)pyridin-3-ylamino]-6-(3,5-dichloro-4-hydroxyphenyl)-1,5-naphthyridin-3-yl}ethanone trihydrochloride], the IC50 was 0.088 µM in assay [1]; 0.022 µM in assay [2]; 0.029 µM in assay [3]; 0.03 µM in assay [4]; 0.002 µM in assay [5]; 1.9 µM in assay [6].
For `CC(=O)c1cnc2ccc(-c3cc(F)c(O)c(Cl)c3)nc2c1Nc1ccc(N2CCC[C@@H](N)C2)nc1` [Example 96, (R)-1-{4-[6-(3-Aminopiperidin-1-yl)pyridin-3-ylamino]-6-(3-chloro-5-fluoro-4-hydroxyphenyl)-1,5-naphthyridin-3-yl}ethanone], the 50% inhibitory concentration (IC50) came out at 0.035 µM in assay [1]; 0.018 µM in assay [2]; 0.026 µM in assay [3]; 0.024 µM in assay [4]; 0.0036 µM in assay [5]; 0.43 µM in assay [6].
In the case of `N[C@@H]1CCCN(c2ccc(Nc3c(C(=O)C4CC4)cnc4ccc(-c5cc(Cl)c(O)c(Cl)c5)nc34)cn2)C1` [Example 201, (R)-(4-{[6-(3-aminopiperidin-1-yl)pyridin-3-yl]amino}-6-(3,5-dichloro-4-hydroxyphenyl)-1,5-naphthyridin-3-yl) (cyclopropyl)methanone], the IC50 in assay [1] amounted to 0.0061 µM; in assay [2], 0.0025 µM; in assay [3] it was 0.0061 µM; in assay [4] it was 0.003 µM; in assay [5], 0.00093 µM; in assay [6], 0.032 µM.
Take `N[C@@H]1CCCN(c2ccc(Nc3c(C(=O)C4CC4)cnc4ccc(-c5cc(F)c(O)c(Cl)c5)nc34)cn2)C1` [Example 202, (R)-(4-{[6-(3-aminopiperidin-1-yl)pyridin-3-yl]amino}-6-(3-chloro-5-fluoro-4-hydroxyphenyl)-1,5-naphthyridin-3-yl) (cyclopropyl) methanone]: the concentration for half-maximal inhibition (IC50) in assay [1] is 0.0054 µM; in assay [2], 0.0038 µM; in assay [3], 0.0044 µM; in assay [4] it was 0.001 µM; in assay [5], 0.00046 µM; in assay [6] it was 0.047 µM.
`CN(C)[C@H]1CC[C@H](Nc2c(C(=O)CO)cnc3ccc(-c4cc(Cl)c(O)c(Cl)c4)nc23)CC1` [Example 203, 1[6-(3,5-dichloro-4-hydroxyphenyl)-4-{[trans-4-(dimethylamino)cyclohexyl]amino}-1,5-naphthyridin-3-yl)-2-hydroxyethanone dihydrochloride]: the half-inhibitory concentration (IC50) came to 0.034 µM in assay [1]; 0.0093 µM in assay [2]; 0.017 µM in assay [3]; 0.013 µM in assay [4]; 0.0015 µM in assay [5]; 1.2 µM in assay [6].
`CN(C)C[C@H]1CC[C@H](Nc2c(C(=O)CO)cnc3ccc(-c4cc(F)c(O)c(Cl)c4)nc23)CC1` [Example 204, 1-[6-(3-chloro-5-fluoro-4-hydroxyphenyl)-4-({trans-4-[(dimethylamino)methyl]cyclohexyl}amino)-1,5-naphthyridin-3-yl)]-2-hydroxyethanone dihydrochloride]: the half-inhibitory concentration (IC50) in assay [1] is 0.058 µM; in assay [2] it was 0.014 µM; in assay [3] it was 0.02 µM; in assay [4], 0.013 µM; in assay [5] it was 0.0013 µM; in assay [6], 10 µM.
With `CCC(=O)c1cnc2ccc(-c3cc(F)c(O)c(Cl)c3)nc2c1N[C@H]1CC[C@H](CN(C)C)CC1` [Example 205, 1-[6-(3-chloro-5-fluoro-4-hydroxyphenyl)-4-({trans-4-[(dimethylamino)methyl]cyclohexyl}amino)-1,5-naphthyridin-3-yl)]propan-1-one dihydrochloride], the concentration for half-maximal inhibition (IC50) in assay [1] is 0.032 µM; in assay [2] it was 0.0083 µM; in assay [3], 0.022 µM; in assay [4], 0.033 µM; in assay [5], 0.0028 µM; in assay [6], 0.69 µM.
